Measurements from patent EP1377579B1 (Aventis Pharmaceuticals Inc., priority 2000, dated 2002).
Like-named read-outs stand apart in the source and are kept apart here.

What was measured:
PC-3 = assay: In vitro proliferation assay (MTT), PC-3; format: cell-based, human; conditions: Homo sapiens
Method in brief: (§1)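 MTT viability, 3 d compound treatment; seeding 1000–2500 cells/well, overnight attachment; formazan in DMSO, A570; IC50 fitted from raw absorbance.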

NCI-H460 = assay: In vitro proliferation assay (MTT), NCI-H460; format: cell-based; conditions: Homo sapiens
Method in brief: (§2)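 Plate 1000–2500 cells/well, RPMI 1640 + 5 % FBS, 3 mM L-glutamine; attach overnight → compound treatment 3 days → MTT, 37 C, 2–4 hr → remove medium, solubilize in DMSO → absorbance 570 nm → IC50.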

Colo-205 = assay: In vitro proliferation assay (MTT), Colo-205; format: cell-based; conditions: Homo sapiens
Method in brief: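 Colo-205 cells were seeded at 1000–2500 cells/well and allowed to attach overnight, then exposed to compound for 3 days. Viable cells were measured by MTT reduction (2–4 h, 37 °C), with DMSO-solubilised dye read at 570 nm. IC50 was derived from concentration–response data.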

HL-60 = assay: In vitro proliferation assay (MTT), HL-60; format: cell-based; conditions: Homo sapiens
Method in brief: as §2

cortical neuronal death = conditions: cited from earlier work; for IC50: Park et al. 1997, read-out: IC50, protection against camptothecin-induced cortical neuronal death
MDA-MB-435 = assay: In vitro proliferation assay (MTT), MDA-MB-435; format: cell-based, human; conditions: Homo sapiens
Method in brief: as §1

[1] = system: neuronally differentiated PC12 cells, rat sympathetic neurons; conditions: cited from earlier work; for concentration of maximal protection from death: camptothecin-treated PC12 cells or rat sympathetic neurons; for cell death: camptothecin-treated, at day 6
Jurkat = assay: In vitro proliferation assay (MTT), Jurkat; format: cell-based; conditions: Homo sapiens, MTT assay, value (SD, n) where given, read-out: Jurkat Leuk. (IC50 µM)
Method in brief: as §2

[2] = Bioavailability experiment in mice given single intravenous cassette doses; conditions: for Cls: mice plasma, single intravenous cassette dose
cdk1/cyclin B = cdk1/cyclin B (Homo sapiens, UniProt P06493); assay: Cyclin-dependent kinase assay, cdk1/cyclin B; conditions: CDK1 IC50, nM, Histone H1, 10 µM ATP
Sequence of cdk1/cyclin B (P06493 whole entry): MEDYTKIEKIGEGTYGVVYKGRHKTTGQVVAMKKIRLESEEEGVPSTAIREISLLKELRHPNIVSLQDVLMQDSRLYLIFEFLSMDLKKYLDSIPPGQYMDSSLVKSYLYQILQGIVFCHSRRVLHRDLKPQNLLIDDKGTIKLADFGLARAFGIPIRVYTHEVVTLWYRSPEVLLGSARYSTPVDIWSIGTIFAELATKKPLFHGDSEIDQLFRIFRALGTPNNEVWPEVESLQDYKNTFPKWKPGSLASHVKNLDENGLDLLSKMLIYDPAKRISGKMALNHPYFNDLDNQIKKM
Sequence of cdk1/cyclin B (P14635 whole entry partner): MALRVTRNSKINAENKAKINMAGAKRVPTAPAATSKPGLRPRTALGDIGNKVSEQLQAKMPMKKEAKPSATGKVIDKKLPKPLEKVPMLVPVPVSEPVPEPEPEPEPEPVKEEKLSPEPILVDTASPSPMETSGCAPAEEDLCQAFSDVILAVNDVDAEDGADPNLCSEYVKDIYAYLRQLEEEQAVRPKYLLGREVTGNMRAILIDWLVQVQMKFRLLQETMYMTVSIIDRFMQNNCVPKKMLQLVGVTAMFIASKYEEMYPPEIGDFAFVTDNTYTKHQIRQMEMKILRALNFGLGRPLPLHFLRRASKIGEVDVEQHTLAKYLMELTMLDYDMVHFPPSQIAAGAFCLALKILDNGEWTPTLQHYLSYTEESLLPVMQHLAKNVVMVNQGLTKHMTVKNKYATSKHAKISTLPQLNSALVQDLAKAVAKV

HL-60 Human Leukemia = assay: HL-60 human leukemia xenograft in nude mice; format: in vivo; conditions: Table 5
Experimental: (§3) Antitumor efficacy is assessed using two subcutaneous human tumor xenograft models. The studies are performed using conventional assay techniques. Briefly, HL-60 (leukemia, 5 x10^5 cells) and PC-3 (prostate, 5 x 10^6 cells) tumor cells are injected subcuateously into nude mice (Crl-CD1-Br-nu, Charles River Laboratory, Wilmington, MA). Dosing with compounds began when tumors reached 50 to 100 mm^3. The dose route/schedule for the test compounds is ip/qld (5x/wk). The test doses are set based on the maximum tolerated dose (MTD). […] The test doses for the efficacy studies are set at 1/3rd the MTD (low dose) and the MTD (high dose). The results are shown in Tables 4 and 5 (HL-60, leukemia) (PC-3, prostate cancer). The length of the treatment phase is dependent on the tumor growth rate for the two models. This treatment phase is typically about 3 weeks for the HL-60 model and about 5 weeks for the PC-3 model. […] Dosing with flavopiridol is for the same time frame as for the experimental compounds in both xenograft models. Tumor volume (twice weekly) and body weights (once weekly) are monitored throughout the course of the treatment phase of the experiment. Tumor sizes are measured by external caliper measurements of protruding tumor. Volumes are calculated using the following formula: volume =½ (a x b2), where b is the smaller of two perpendicular diameters.

cdk2/cyclin E = cdk2/cyclin E (Homo sapiens, UniProt P24941); assay: Cyclin-dependent kinase assay, cdk2/cyclin E; conditions: CDK2 IC50, nM, GST-pRb substrate, 10 µM ATP
[3] = system: PC-3 Human Prostate Tumors; assay: PC-3 human prostate tumor xenograft in nude mice; format: in vivo; design: unit not given here; conditions: Table 5
Experimental: as §3

[4] = Red blood cell binding, human whole blood; format: in vitro ADME; conditions: 30 minutes at 37°C, 500 ng/ml
Experimental: (§4) Compounds, including one positive control, are assessed for red blood cell (RBC) uptake, using a modified procedure based on the protocol reported in Sun, J.X.S., et al. High-performance liquid chromatographic analysis, plasma protein binding and red blood cell partitioning of phenprobamate. Biopharmaceutics and Drug Disposition, 8 (1987) 341-351.
(§5) Briefly, RBC uptake is evaluated by comparison of the levels in spiked plasma (n=3) and plasma isolated from spiked whole blood (n=3). Compounds are incubated with human and mouse whole blood, respectively, for 30 minutes at 37°C using a nominal concentration of 500 ng/ml. Following centrifugation, the plasma is removed and submitted for analysis. Each compound is also spiked into blank plasma at a nominal concentration of 500 ng/ml, and submitted for analysis. Levels in the two plasma samples (Cp' and Cp in the equation below) and the blood hematocrit are used to determine the red blood cell to plasma ratio (Crbc/Cp). (Crbc)/(Cp) = (Cpʹ)/(Cp•H)-((1-H))/(H) [formula] In equation 1, Cp' is the level of drug in the spiked "blank" plasma, Cp is the level of drug in the plasma of spiked whole blood, and H is the hematocrit. The hematocrit values are determined as 0.4 for human whole blood and 0.41 for mouse whole blood. The samples are analyzed with ESI LC/MS, using positive ion detection with an internal standard.
(§6) The red blood cell to plasma ratio is determined for each compound using equation 1. Tables 6 and 7 summarize the respective mean Crbc/Cp values and standard deviations for mouse and human whole blood, respectively, in descending order based on the red blood cell to plasma ratio, where"*" denotes Positive Control, and "ND" denotes Not Determined. MDL 108552 is included as a positive control for red blood cell uptake. Table 6. Red Blood Cell to Plasma Ratio for compounds in mouse whole blood

in vivo = conditions: male, Hsd:ICR (CD-1), mouse, plasma
cdk4/cyclin D1 = cdk4/cyclin D1 (Homo sapiens, UniProt P11802); assay: Cyclin-dependent kinase assay, cdk4/cyclin D1; format: biochemical; conditions: cyclin D1/cdk4; GST-pRb substrate, 10 µM ATP
Sequence of cdk4/cyclin D1 (P11802 whole entry): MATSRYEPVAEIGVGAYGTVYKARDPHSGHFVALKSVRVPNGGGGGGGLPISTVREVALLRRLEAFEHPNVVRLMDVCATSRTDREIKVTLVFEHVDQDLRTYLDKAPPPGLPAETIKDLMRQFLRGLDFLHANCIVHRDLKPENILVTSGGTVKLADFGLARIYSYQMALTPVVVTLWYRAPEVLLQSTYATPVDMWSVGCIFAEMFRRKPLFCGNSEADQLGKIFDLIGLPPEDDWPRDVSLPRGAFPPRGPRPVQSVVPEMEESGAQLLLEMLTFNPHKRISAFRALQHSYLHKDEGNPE
Sequence of cdk4/cyclin D1 (P24385 whole entry partner): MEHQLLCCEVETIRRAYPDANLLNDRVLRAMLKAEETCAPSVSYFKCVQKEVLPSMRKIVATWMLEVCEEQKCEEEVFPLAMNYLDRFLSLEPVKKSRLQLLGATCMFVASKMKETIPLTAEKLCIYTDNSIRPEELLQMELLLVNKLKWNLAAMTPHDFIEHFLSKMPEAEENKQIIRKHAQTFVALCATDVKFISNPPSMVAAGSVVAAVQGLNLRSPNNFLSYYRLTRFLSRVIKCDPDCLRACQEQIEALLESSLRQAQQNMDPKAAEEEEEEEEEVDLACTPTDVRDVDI

[5] = Red blood cell binding, mouse whole blood; format: in vitro ADME; conditions: 30 minutes at 37°C, 500 ng/ml
Experimental: as §4, §5, §6

[6] = PC-3, read-out: PC-3 Prostate (IC50 µM)
[7] = NCI-H460, read-out: H-460 Lung (IC50 µM)
[8] = COLO 205, read-out: Colo-205 Colon (IC50 µM)
[9] = MDA-MB-435, read-out: MB-435 Breast (IC50 µM)
[10] = camptothecin-treated neuronal cells

Structure (SMILES) | IC50 (cortical neuronal death) [nM] | concentration of maximal protection from death [1] [µM] | cell death [1] | IC50 (PC-3; [6]) [µM] | IC50 (NCI-H460; [7]) [µM] | IC50 (cdk1/cyclin B) [nM] | HL60 Mean Vol. ± SD (HL-60 Human Leukemia; dose 1 mg/kg ip) | HL60 Mean Vol. ± SD (HL-60 Human Leukemia; dose 3 mg/kg ip) | IC50 (cdk2/cyclin E) [nM] | IC50 (Colo-205; [8]) [µM] | PC-3 Mean Vol. ± SD ([3]; dose 1 mg/kg ip) | PC-3 Mean Vol. ± SD ([3]; dose 3 mg/kg ip) | Mean Red Blood Cell to Plasma Ratio [4] | AUC(0-inf) (in vivo; iv, 3 mg/kg) [ng·h/mL] | Cmax (in vivo; iv, 3 mg/kg) [ng/mL] | half-life (in vivo; iv, 3 mg/kg) [h] | IC50 (MDA-MB-435; [9]) [µM] | IC50 (cdk4/cyclin D1) [nM] | also measured
CN1CC[C@H](c2c(O)cc(O)c3c(=O)cc(-c4ccccc4Cl)oc23)[C@H](O)C1 [Flavopiridol, flavopiridol, reference compound] | 100 | 1 | approximately 30% |  |  |  |  |  |  |  |  |  |  |  |  |  |  |  | IC50 (PC-3; PC-3, MTT assay, value (SD, n) where given, read-out: PC-3 Prostate (IC50 µM)): 0.08 µM; IC50 (NCI-H460; NCI-H460, MTT assay, value (SD, n) where given, read-out: H-460 Lung (IC50 µM)): 0.07 µM; IC50 (Colo-205; COLO 205, MTT assay, value (SD, n) where given, read-out: Colo-205 Colon (IC50 µM)): 0.03 µM; IC50 (HL-60; HL-60, MTT assay, value (SD, n) where given, read-out: HL-60 Leuk. (IC50 µM)): 0.02 µM; IC50 (MDA-MB-435; MDA-MB-435, MTT assay, value (SD, n) where given, read-out: MB-435 Breast (IC50 µM)): 0.09 µM; IC50 (Jurkat): 0.08 µM
Cn1cnc2c(NCc3ccccc3)nc(NCCO)nc21 [Olomoucine, 6-(benzylamino)-2-[(2-hydroxyethyl)amino]-9-methylpurine] | 100000 | 200 | approximately 30% |  |  |  |  |  |  |  |  |  |  |  |  |  |  |  | 
Cc1ccc(OC(=O)N2CCC(Nc3nc(N[C@H]4CC[C@H](N)CC4)nc4c3ncn4C3CCCC3)CC2)cc1.Cl.Cl [compound 82, trans-4-[2-(4-Amino-cyclohexylamino)-9-cyclopentyl-9H-purin-6-ylamino]-piperidine-1-carboxylic acid p-tolyl ester dihydrochloride] |  |  |  | 0.12 | 0.08 | 31 | 5164 ± 55516 | 2841 ± 1845 | 45 | 0.06 | 810 ± 600 | 967 ± 407 | 5.8 | 944 | 1460 | 3 | 0.06 | 131 | Cls ([2]; 3 mg/kg/compound (15 mg/kg Total Dose), Cassette #4): 53.0 mL/min/kg; Conc. in plasma ([2]; mice, single 15 mg/kg intravenous cassette dose (3 mg/kg/compound), Cassette #4, 24 h, BLQ = below assay quantification limit (approximately 1 ng/ml)): BLQ; IC50 (HL-60; HL-60, read-out: HL-60 Leuk. (IC50 µM)): 0.04 µM; concentration at 0.083 h (in vivo; intravenous, 3 mg/kg): 1460 ± 77.4 ng/mL; concentration at 0.25 h (in vivo; intravenous, 3 mg/kg): 875 ± 96.7 ng/mL; concentration at 0.5 h (in vivo; intravenous, 3 mg/kg): 370 ± 40 ng/mL; concentration at 1 h (in vivo; intravenous, 3 mg/kg): 134 ± 16.3 ng/mL; concentration at 3 h (in vivo; intravenous, 3 mg/kg): 37.5 ± 10.7 ng/mL; concentration at 6 h (in vivo; intravenous, 3 mg/kg): 14.5 ± 3.4 ng/mL; concentration at 8 h (in vivo; intravenous, 3 mg/kg): 12.3 ± 2.2 ng/mL
Cl.Cl.N[C@H]1CC[C@H](Nc2nc(NC3CCN(C(=O)Oc4ccccc4)CC3)c3ncn(C4CCCC4)c3n2)CC1 [compound 85, trans-4-[2-(4-Amino-cyclohexylamino)-9-cyclopentyl-9H-purin-6-ylamino]-piperidine-1-carboxylic acid phenyl ester dihydrochloride] |  |  |  | 0.06 | 0.06 | 26 | 3590 ± 2674 | 5215 ± 4068 | 8 | 0.03 | 912 ± 755 | 1208 ± 1247 | 7.1 | 467 | 843 | 2.3 | 0.03 | 65 | Conc. (ng/ml) in plasma ([2]; Cassette #1, single 18 mg/kg intravenous cassette dose, mice, 24 h, BLQ = below assay quantification limit): BLQ; Cls ([2]; 3 mg/kg/compound (18 mg/kg Total Dose), Cassette #1): 107.1 mL/min/kg; Mean Red Blood Cell to Plasma Ratio [5]: 6.1; concentration at 0.083 h (in vivo; iv, 18 mg/kg): 843 ± 124 ng/mL; concentration at 0.25 h (in vivo; iv, 18 mg/kg): 342 ± 45.1 ng/mL; concentration at 0.5 h (in vivo; iv, 18 mg/kg): 164 ± 15.7 ng/mL; concentration at 1 h (in vivo; iv, 18 mg/kg): 89 ± 21.5 ng/mL; concentration at 3 h (in vivo; iv, 18 mg/kg): 14.3 ± 7.1 ng/mL; concentration at 6 h (in vivo; iv, 18 mg/kg): 5.2 ± 1.9 ng/mL; concentration at 8 h (in vivo; iv, 18 mg/kg): 3.2 ± 0.8 ng/mL
Cn1cnc2nc(NCCO)nc(NCc3ccccc3)c21 [iso-olomoucine] |  |  |  |  |  |  |  |  |  |  |  |  |  |  |  |  |  |  | prevention of cell death (cortical neuronal death; [10]): failed to prevent the cell death; prevention of cell death [1, 10]: failed to prevent the cell death
